Assay results taken from publication PMC7600679, “Benzoxazole-Based Metal Complexes to Reverse Multidrug Resistance in Bacteria” (Antibiotics, 2020).
Values after ≈ are worked out from the molar mass of the structure shown. Like-named read-outs stand apart in the source and are kept apart here.

Legend:
[1] = system: S. aureus MRSA 272123; assay: Resistance modulation (MIC reduction) assay with CIP and TET; type: cell-based, Staphylococcus aureus; settings: for Reduction of the MIC value of CIP: compound at a quarter of the MIC; for CIP MIC in combination with compounds: compound at ¼ MIC, value is the MIC of ciprofloxacin
Procedure: (§1) The resistance modulation effects of compounds with ciprofloxacin (CIP) and tetracycline (TET) antibiotics were evaluated by the MIC reduction method on the Gram-negative E. coli AG100, AG100 A, and the Gram-positive S. aureus ATCC and MRSA strains.
(§2) The chemosensitizing activity of benzoxazole-type ligands and their metal complexes was determined based on the MIC values of the antibiotics in the presence of sub-inhibitory concentrations of the compounds (¼ MIC) in both Gram-negative and Gram-positive strains. The MICs were determined in strains by the two-fold broth microdilution method in 96-well plates, using serial dilutions of TET and CIP. The first four rows contained two-fold dilutions of antibiotics, and combinations of the TET and CIP and tested compounds were transferred into the last four rows. The 10^−4 dilution of an overnight bacterial culture in 50 μL of MHB was then measured to each well, except for the medium control wells. The plates were kept at 37 °C for 18 h. MIC values of antibiotics and their combination with tested compounds were detected by visual inspection.

[2] = system: E. coli AG100; assay: Minimum inhibitory concentration (broth microdilution, CLSI); type: cell-based, Escherichia coli; settings: E. coli AG100, 18 h, visual inspection, read-out: MIC
Procedure: The strains were donated by Prof. Dr. Hiroshi Nikaido (Department of Molecular and Cell Biology and Chemistry, University of California, Berkeley, CA, USA).
(§3) The minimum inhibitory concentrations (MICs) of compounds were determined in 96-well plates based on the Clinical and Laboratory Standard Institute guidelines (CLSI guidelines). The compounds were diluted in 100 μL of MHB. Then, 10^−4 dilution of an overnight bacterial culture in 100 μL of medium were added to each well, with the exception of the medium control wells.

[3] = system: E. coli AG100; assay: Resistance modulation (MIC reduction) assay with CIP and TET; type: cell-based, Escherichia coli; settings: compound at ¼ MIC, value is the MIC of ciprofloxacin
Procedure: as §1, §2

[4] = system: Staphylococcus aureus ATCC 25923; assay: Minimum inhibitory concentration (broth microdilution, CLSI); type: cell-based; settings: S. aureus ATCC 25923, 18 h, visual inspection
Procedure: (§4) The compounds were further investigated against two Gram-positive strains, S. aureus ATCC 25923 (MSSA), used as the methicillin susceptible reference strain, and the methicillin- and ofloxacin-resistant S. aureus 272123 clinical isolate (MRSA), which was given by Prof. Dr. Leonard Amaral (Institute of Hygiene and Tropical Medicine, Lisbon, Portugal).
as §3

[5] = system: S. aureus 272123 (MRSA); assay: as above; type: cell-based, Staphylococcus aureus; settings: 18 h, visual inspection
Procedure: as §4, §3

[6] = system: MRC-5 human embryonal lung fibroblast cell line; assay: Cytotoxicity assay (MTT); type: cell-based
Procedure: The MRC-5 human embryonic lung fibroblast cell line (ATCC CCL-171; provider: LGC Promochem, Teddington, UK) was used in the experiments. The cells were cultivated in Eagle’s Minimal Essential Medium (EMEM; Sigma–Aldrich, St. Louis, MO, USA), supplemented with 1% non-essential amino acid mixture, 10% heat-inactivated fetal bovine serum, 2 mM L-glutamine, 1 mM Na-pyruvate, nystatin, and a penicillin–streptomycin mixture in concentrations of 100 U/L and 10 mg/L, respectively. The supplementary components were obtained from Sigma–Aldrich, St. Louis, MO, USA. The cell culture was kept in a humidified atmosphere (5% CO2, 95% air) at 37 °C.
The activity of increasing concentrations of the compounds on cell growth was determined in 96-well flat-bottomed microtiter plates by two-fold serial dilutions of the benzoxazole derivatives. The adherent human embryonic lung fibroblast cells (10^4/well) was seeded in EMEM medium in 96-well microtiter plates for 4 h prior to the assay. The serial dilutions of the compounds were made in a separate plate, and then pipetted to the plates containing the MRC-5 cell line. Culture plates were incubated at 37 °C for 24 h; at the end of the incubation period, 20 μL of MTT (3-(4,5-dimethylthiazol-2-yl)-2,5-diphenyltetrazolium bromide) solution (from a 5 mg/mL stock solution) was measured to each well. After the incubation at 37 °C for 4 h, 100 μL of sodium dodecyl sulfate (SDS) solution (10% SDS in 0.01 M HCl) was added to each well to dissolve the formazan crystals and the samples were further incubated at 37 °C overnight. Cell growth was calculated by measuring the OD at 540 nm (ref. 630 nm) with a Multiscan EX ELISA reader. The cytotoxicity was expressed as IC50 values, defined as the inhibitory dose that reduces the growth of the cells exposed to the tested compounds by 50%.

[7] = system: E. coli AG100 A; assay: Minimum inhibitory concentration (broth microdilution, CLSI); type: cell-based, Escherichia coli; settings: 18 h
Procedure: Wild-type E. coli K-12 AG100 strain (argE3 thi-1 rpsL xyl mtl Δ(gal-uvrB) supE44) expressing the AcrAB TolC EP at its basal level and its AcrAB-TolC deleted mutant E. coli K-12 AG100 A strain. The strains were donated by Prof. Dr. Hiroshi Nikaido (Department of Molecular and Cell Biology and Chemistry, University of California, Berkeley, CA, USA).
as §3

[8] = E. coli AG100 A (AcrAB-TolC deleted), visual inspection

Row | Compound | Reduction of the MIC value of CIP [1] [fold] | CIP MIC in combination with compounds [1] [µM] | MIC [2] [µM] | CIP MIC in combination with compounds [3] [µM] | MIC [4] [µM] | MIC [5] [µM] | Cytotoxic effect (class in words) ([6]; 24 h) | IC50 ([6]; 24 h) [µM] | MIC [7, 8] [µM] | MIC ([2]; Escherichia coli) [µM] | MIC ([4]; Staphylococcus aureus, ATCC25923) [µM] | MIC ([5]; Staphylococcus aureus) [µM] | IC50 ([6]; Homo sapiens, MRC5, 24 h) [µM] | MIC ([7]; Escherichia coli, AG100A) [µM]
1 | [Fe+3].[O-]C(=Cc1nc2ccccc2o1)C(F)(F)F.[O-]C(=Cc1nc2ccccc2o1)C(F)(F)F.[O-]C(=Cc1nc2ccccc2o1)C(F)(F)F [Compound 12] | 2 | 6.25 | >100 | 0.016 | 50 | 25 | no (IC50 > 100 µM) | > 100 | 50 | – | – | – | – | –
2 | O=C(Cc1nc2ccccc2o1)C(F)F [Compound 3] | 2 | 6.25 | – | 0.016 | – | 50 (≈ 10.6 µg/mL) | moderate (IC50: 31–60) | – | – | 50 (≈ 10.6 µg/mL) | 100 (≈ 21.1 µg/mL) | 50 (≈ 10.6 µg/mL) | 44.5 | 25 (≈ 5.28 µg/mL)
3 | [O-]C(=Cc1nc2ccccc2o1)C(F)(F)Cl.[O-]C(=Cc1nc2ccccc2o1)C(F)(F)Cl.[Zn+2] [Compound 5] | 2 | 6.25 | 50 | 0.016 | 12.5 | 3.125 | – | 24.6 | 12.5 | – | – | – | – | –
